The source of these data is US10501464B2, “7-oxo-6-(sulfooxy)-1,6-diazabicyclo[3.2.1]octane-2-carboxamide containing compounds and their use in treating bacterial infections” (WOCKHARDT LIMITED, priority 2015, dated 2019).

Experiment in all cases: Antibacterial activity, MIC by agar dilution (CLSI)
What all share (assay type): cell-based

One assay has as its system K. pneumoniae H 525. Conditions: Klebsiella pneumoniae, H525, K. pneumoniae H 525; compound tested alone; read-out: MIC. As to the method: (§1) The biological activity of representative compounds according to the invention against various bacterial strains was investigated. In a typical study, overnight grown bacterial cultures were diluted appropriately and inoculated on the agar media containing doubling dilutions of the test compounds. Observations for growth or no growth was performed after 16-20 hours of incubation at 35±2° C. in the ambient air. The overall procedure was performed as per Clinical and Laboratory Standards Institute (CLSI) recommendations, (Clinical and Laboratory Standards Institute (CLSI), Performance Standards for Antimicrobial Susceptibility Testing, 20th Informational Supplement, M07-A9, Volume 32, No. 2, 2012). Molten Mueller Hinton Agar (BD, USA) containing serial dilutions of each antibacterial agent were poured on to the plates and allowed to solidify. Appropriate suspensions from the freshly grown cultures were prepared in normal saline so that about 10^4CFU/spot of the organism was delivered on to the drug containing agar plates using automated multipoint inoculator (Mast, UK). The plates were incubated in Biochemical oxygen demand (BOD) incubator at 37° C. for 18 hours and then examined for growth.
(§2) Method for the determination of MIC: The Minimum Inhibitory Concentration (MIC) determination for the combinations was carried out in Muller Hinton Agar (MHA) (BD, USA) according to Clinical and Laboratory Standards Institute (CLSI) recommendations, (Clinical and Laboratory Standards Institute (CLSI), Performance Standards for Antimicrobial Susceptibility Testing, 20th Informational Supplement, M 100-S20, Volume 30, No. 1, 2010). In short, the test strains were adjusted to deliver about 10^4CFU per spot with a multipoint inoculator (Applied Quality Services, UK). The plates were poured with MHA containing doubling concentration range of representative compounds according to present invention. The plates were inoculated and were incubated at 35° C. for 18 hour. […] The Table 2 depicts the antibacterial activity profile of compounds according to present invention against various multidrug resistant bacterial strains.

The subject of another assay is K. pneumoniae H 523. The settings on record: Klebsiella pneumoniae, H523, K. pneumoniae H 523; compound tested alone; read-out: MIC. How it is done: as §1, §2
The subject of the next assay is K. pneumoniae H 522. The settings on record: Klebsiella pneumoniae, H522, K. pneumoniae H 522; compound tested alone; read-out: MIC. How it is done: as §1, §2
For another assay, the system named is E. coli 13353. The settings on record: compound tested alone. How it is done:
as §1, §2

A further assay deals with E. coli 7 MP. Conditions: compound tested alone. As to the method:
as §1, §2

The next assay deals with E. coli M 138. Conditions: Escherichia coli, M138, E. coli M 138; compound tested alone; read-out: MIC. How it is done: as §1, §2
A further assay has as its system E. coli M 36. Conditions: compound tested alone. As to the method:
as §1, §2

The test system of another assay is P. mirabilis S 137B. The settings on record: Proteus mirabilis, S137B, compound tested alone, read-out: MIC. How it is done:
as §1, §2

The subject of another assay is E. coli 13351. Conditions: compound tested alone. How it is done: as §1, §2
Assay [1] relates to K. pneumoniae ATCC 700603. Conditions: Klebsiella pneumoniae, ATCC700603, compound tested alone, read-out: MIC. How it is done:
as §1, §2

A further assay has as its system E. coli 13352. The settings on record: compound tested alone. How it is done:
as §1, §2

For the next assay, the system named is E. coli M 49. The settings on record: Escherichia coli, M49, E. coli M 49; compound tested alone; read-out: MIC. How it is done: as §1, §2
The test system of a further assay is K. pneumoniae H 521. Conditions: Klebsiella pneumoniae, H521, K. pneumoniae H 521; compound tested alone; read-out: MIC. How it is done: as §1, §2
A further assay has as its system E. coli M 50. The settings on record: compound tested alone. How it is done:
as §1, §2

Setting [2] is: Escherichia coli, 13353, E. coli 13353, read-out: MIC.
The mark [3] stands for this setting: Escherichia coli, 7MP, read-out: MIC.
The mark [4] stands for this setting: Escherichia coli, M36, E. coli M 36, read-out: MIC.
The mark [5] stands for this setting: Escherichia coli, 13351, E. coli 13351, read-out: MIC.
The mark [6] stands for this setting: Escherichia coli, 13352, E. coli 13352, read-out: MIC.
Setting [7] is: Escherichia coli, M50, E. coli M 50, read-out: MIC.

Like-named read-outs stand apart in the source and are kept apart here.

By MIC is commonly meant the least concentration at which growth counts as inhibited.

Turning to `O=C(NNC(=O)[C@@H]1CC[C@@H]2CN1C(=O)N2OS(=O)(=O)O)[C@@H]1C[C@H](n2cnnn2)CN1` [Example 24], the minimum inhibitory concentration (MIC) with K. pneumoniae H 525 amounted to 4 µg/mL; with K. pneumoniae H 523 it was 4 µg/mL; with K. pneumoniae H 522, 4 µg/mL; in the assay on E. coli 13353 (setting [2]), 4 µg/mL; in the assay with E. coli 7 MP (setting [3]), 8 µg/mL; in the assay on E. coli M 138, 4 µg/mL. The minimum inhibitory concentration (MIC) in the assay with E. coli M 36 (setting [4]) was 4 µg/mL; in the assay with P. mirabilis S 137B it was more than 32 µg/mL; in the assay with E. coli 13351 (setting [5]), 2 µg/mL; in assay [1], more than 32 µg/mL; with E. coli 13352 (setting [6]), 2 µg/mL; with E. coli M 49, 16 µg/mL. Also, the MIC in the assay on K. pneumoniae H 521 and with E. coli M 50 (setting [7]) was 4 µg/mL each time.
As to `O=C(NNC(=O)[C@@H]1CC[C@@H]2CN1C(=O)N2OS(=O)(=O)O)[C@@H]1C[C@H](n2nccn2)CN1` [Example 25], the minimum inhibitory concentration (MIC) came out at 8 µg/mL in the assay with K. pneumoniae H 525; 4 µg/mL in the assay with K. pneumoniae H 523; 4 µg/mL in the assay on K. pneumoniae H 522; 0.5 µg/mL with E. coli 13353 (setting [2]); 2 µg/mL in the assay on E. coli 7 MP (setting [3]); 2 µg/mL with E. coli M 138. Moreover, the MIC in the assay on E. coli M 36 (setting [4]) is 1 µg/mL; with P. mirabilis S 137B, more than 32 µg/mL; in the assay on E. coli 13351 (setting [5]) it was 1 µg/mL; in [1], more than 32 µg/mL; in the assay on E. coli 13352 (setting [6]), 1 µg/mL; in the assay with E. coli M 49 it was 8 µg/mL. The minimum inhibitory concentration (MIC) in the assay on K. pneumoniae H 521 was determined as 4 µg/mL; with E. coli M 50 (setting [7]), 1 µg/mL.
With `O=C(NOC[C@@H]1C[C@H](n2ncnn2)CN1)[C@@H]1CC[C@@H]2CN1C(=O)N2OS(=O)(=O)O` [Example 1, (2S,5R)-N-{[(2S,4S)-4-(2H-tetrazol-2-yl)pyrrolidin-2-yl]methyloxy}-7-oxo-6-(sulfooxy)-1,6-diazabicyclo[3.2.1]octane-2-carboxamide], the MIC amounted to 4 µg/mL with K. pneumoniae H 525; 4 µg/mL in the assay on K. pneumoniae H 523; 4 µg/mL in the assay with K. pneumoniae H 522; 2 µg/mL in the assay with E. coli 13353 (setting [2]); 8 µg/mL in the assay on E. coli 7 MP (setting [3]); 4 µg/mL with E. coli M 138. Also, the MIC in the assay with E. coli M 36 (setting [4]) was 1 µg/mL; in the assay on P. mirabilis S 137B, more than 32 µg/mL; in the assay on E. coli 13351 (setting [5]), 4 µg/mL; in [1], more than 32 µg/mL; in the assay on E. coli 13352 (setting [6]), 4 µg/mL; in the assay on E. coli M 49, 16 µg/mL. The MIC in the assay on K. pneumoniae H 521 was determined as 4 µg/mL; in the assay on E. coli M 50 (setting [7]) it was 2 µg/mL.
`O=C(NNC(=O)[C@@H]1CC[C@@H]2CN1C(=O)N2OS(=O)(=O)O)C1C[C@H](n2ccnc2)CN1` (stereo partly shown) [Example 28]: the MIC in the assay on K. pneumoniae H 525 amounted to 4 µg/mL; with K. pneumoniae H 523, 4 µg/mL; with K. pneumoniae H 522, 4 µg/mL; in the assay with E. coli 13353 (E. coli 13353), 1 µg/mL; in the assay on E. coli 7 MP it was 4 µg/mL; with E. coli M 138, 2 µg/mL. Moreover, the MIC is 1 µg/mL in the assay on E. coli M 36 (E. coli M 36); more than 32 µg/mL with P. mirabilis S 137B; 1 µg/mL in the assay on E. coli 13351 (E. coli 13351); more than 32 µg/mL in [1]; 1 µg/mL with E. coli 13352 (E. coli 13352); 8 µg/mL with E. coli M 49. Moreover, the MIC was determined as 4 µg/mL with K. pneumoniae H 521 and 2 µg/mL with E. coli M 50 (E. coli M 50).
As to `O=C(NOC[C@H]1C[C@H](n2ccnc2)CN1)[C@@H]1CC[C@@H]2CN1C(=O)N2OS(=O)(=O)O` [Example 7], the MIC in the assay on K. pneumoniae H 525 was 2 µg/mL; with K. pneumoniae H 523, 2 µg/mL; with K. pneumoniae H 522, 2 µg/mL; in the assay on E. coli 13353 (setting [2]), 0.5 µg/mL; in the assay with E. coli 7 MP (setting [3]) it was 2 µg/mL; in the assay with E. coli M 138, 1 µg/mL. Besides, the minimum inhibitory concentration (MIC) with E. coli M 36 (setting [4]) is 0.5 µg/mL; in the assay with P. mirabilis S 137B it was more than 32 µg/mL; in the assay on E. coli 13351 (setting [5]), 1 µg/mL; in assay [1], more than 32 µg/mL; in the assay on E. coli 13352 (setting [6]) it was 1 µg/mL; in the assay with E. coli M 49 it was 4 µg/mL. The MIC came to 2 µg/mL in the assay with K. pneumoniae H 521 and 1 µg/mL in the assay with E. coli M 50 (setting [7]).
